Values of other authors, collected in US20050096369A1, “Compositions and methods for treating cellular proliferation disorders” (priority 2003, published 2005).
One block for each compound: values may come before it.

Assays:
[1] = system: voltage gated calcium channels; conditions: cultured rat hippocampal neurons; concentration and voltage dependant (Weng et al., 2003)
[2] = system: cell lines derived from human malignancies; conditions: Pizer et al.
leukemia cells = conditions: Zhu Ningxi, et al.
[3] = Merck Index
calcium-channel = conditions: PDR and Zhou, 2003
[4] = not given; remark: listed apart in the source
[5] = system: voltage-gated sodium channel; conditions: PDR and Zhou, 2003

Structure (SMILES): N=C(N)NCCCCN [Agmatine, agmatine]
effect on voltage gated calcium channels [1]: block voltage gated calcium channels

Structure (SMILES): C/C=C/C/C=C/CCC(=O)[C@H]1O[C@H]1C(N)=O [cerulenin]
cytotoxicity [2]: selectively cytotoxic to cell lines derived from human malignancies

Structure (SMILES): O=C1CCC[C@@H]2[C@H]3CCCN4CCC[C@@H](CN12)[C@@H]34 [matrine]
time to excretion by the kidneys (in vivo): ≤ 24 h
stability in the blood (not converted by the liver): stable in the blood
effect on leukemia cell differentiation (leukemia cells): could help leukemia cells differentiate into mature and normal white blood cells
water solubility [3]: water soluble

fate when administered by injection (injection): stable and is excreted as oxymatrine
fate when taken orally (oral): converted to matrine
Structure (SMILES): O=C1CCC[C@@H]2[C@H]3CCC[N+]4([O-])CCC[C@@H](CN12)[C@@H]34 (stereo partly drawn) [oxymatrine]

time to peak plasma levels ([4]; after ingestion): one to one and a half
time in which most of a dose is excreted ([4]; excreted in urine as apovincaminic acid): ≤ 24 h
elimination half-life ([4]; following ingestion): one to two
absorption ([4]; given with food): up to 60 % of an ingested dose
absorption of an ingested dose ([4]; on an empty stomach): ≥ 7%
Structure (SMILES): CCOC(=O)C1=C[C@]2(CC)CCCN3CCc4c(n1c1ccccc41)[C@@H]32 [vinpocetine, eburnamenine-14-carboxylic acid ethyl ester]
calcium-channel blocking (calcium-channel): calcium-channel blocking activity
voltage-gated sodium channel blocking [5]: voltage-gated sodium channel blocking activity
